Assay results published in PMC7615656 (European journal of pharmacology, 2010).

Tests used:
[1] = biological target: recombinant rat α3β3γ2 receptors (Rattus norvegicus, UniProt P18508+P20236); experiment: Two-electrode voltage clamp of GABA-induced chloride currents in Xenopus oocytes; format: cell-based; conditions: for efficacy (% GABA EC3): α3β3γ2, ns = not significant
[2] = biological target: recombinant rat α1β3γ2F77I receptors (Rattus norvegicus, UniProt P18508+P62813, F115I); experiment: as above; format: cell-based; conditions: for efficacy (% GABA EC3): ns = not significant
Chain of recombinant rat α1β3γ2F77I receptors (P62813 28-455): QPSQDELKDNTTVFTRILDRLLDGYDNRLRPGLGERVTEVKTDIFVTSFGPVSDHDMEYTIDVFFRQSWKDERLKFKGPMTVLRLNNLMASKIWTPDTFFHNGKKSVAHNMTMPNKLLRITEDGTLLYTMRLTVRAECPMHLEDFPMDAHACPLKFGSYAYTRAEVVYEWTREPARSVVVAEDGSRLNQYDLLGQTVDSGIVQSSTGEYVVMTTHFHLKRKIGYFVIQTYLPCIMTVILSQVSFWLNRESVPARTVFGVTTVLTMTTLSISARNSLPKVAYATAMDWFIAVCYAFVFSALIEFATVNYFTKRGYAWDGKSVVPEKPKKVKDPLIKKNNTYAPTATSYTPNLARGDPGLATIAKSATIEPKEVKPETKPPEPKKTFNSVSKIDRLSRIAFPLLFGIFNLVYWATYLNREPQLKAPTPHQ
Chain of recombinant rat α1β3γ2F77I receptors (P63079 26-473 partner): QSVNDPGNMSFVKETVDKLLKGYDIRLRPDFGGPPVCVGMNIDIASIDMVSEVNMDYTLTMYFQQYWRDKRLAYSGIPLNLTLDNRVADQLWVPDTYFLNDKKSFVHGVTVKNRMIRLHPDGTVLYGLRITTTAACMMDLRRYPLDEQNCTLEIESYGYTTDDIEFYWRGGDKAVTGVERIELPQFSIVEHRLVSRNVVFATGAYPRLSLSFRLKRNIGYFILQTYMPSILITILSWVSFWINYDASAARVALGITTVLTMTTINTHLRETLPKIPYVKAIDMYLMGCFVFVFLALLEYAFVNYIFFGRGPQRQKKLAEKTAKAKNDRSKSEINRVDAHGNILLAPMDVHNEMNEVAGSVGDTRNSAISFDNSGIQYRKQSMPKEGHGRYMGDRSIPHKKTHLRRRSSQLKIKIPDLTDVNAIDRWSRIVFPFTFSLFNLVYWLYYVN
Chain of recombinant rat α1β3γ2F77I receptors (P18508 39-466 F115I): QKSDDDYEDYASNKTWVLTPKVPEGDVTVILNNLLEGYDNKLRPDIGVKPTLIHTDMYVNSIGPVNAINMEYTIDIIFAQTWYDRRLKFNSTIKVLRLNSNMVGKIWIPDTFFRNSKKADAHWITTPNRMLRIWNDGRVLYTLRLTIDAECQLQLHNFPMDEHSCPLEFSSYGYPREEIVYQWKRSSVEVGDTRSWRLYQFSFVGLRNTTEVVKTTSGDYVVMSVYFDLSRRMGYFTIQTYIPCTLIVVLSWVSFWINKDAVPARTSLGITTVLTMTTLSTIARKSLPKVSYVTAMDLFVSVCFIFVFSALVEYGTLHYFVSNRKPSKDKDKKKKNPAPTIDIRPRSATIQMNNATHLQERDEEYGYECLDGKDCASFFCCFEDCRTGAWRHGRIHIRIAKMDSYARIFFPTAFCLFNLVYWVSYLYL

[3] = biological target: recombinant rat α3β3γ2F77I receptors (Rattus norvegicus, UniProt P18508+P20236, F115I); experiment: as above; format: cell-based; conditions: for efficacy (% GABA EC3): ns = not significant
[4] = biological target: recombinant rat α2β3γ2 receptors (Rattus norvegicus, UniProt P18508+P23576); experiment: as above; format: cell-based
Chain of recombinant rat α2β3γ2 receptors (P23576 29-451): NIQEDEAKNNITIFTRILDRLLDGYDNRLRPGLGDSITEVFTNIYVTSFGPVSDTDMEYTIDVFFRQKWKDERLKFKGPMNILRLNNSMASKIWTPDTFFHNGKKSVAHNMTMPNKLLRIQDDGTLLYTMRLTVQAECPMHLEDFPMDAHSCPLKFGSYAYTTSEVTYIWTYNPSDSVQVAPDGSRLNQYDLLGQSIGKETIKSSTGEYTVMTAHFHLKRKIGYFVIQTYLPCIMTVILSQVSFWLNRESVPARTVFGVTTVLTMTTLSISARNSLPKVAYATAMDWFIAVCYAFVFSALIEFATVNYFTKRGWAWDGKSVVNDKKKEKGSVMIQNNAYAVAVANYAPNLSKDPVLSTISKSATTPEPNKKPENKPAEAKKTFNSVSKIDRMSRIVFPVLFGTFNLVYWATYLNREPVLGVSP
Chain of recombinant rat α2β3γ2 receptors (P63079 26-473 partner): as the sequence (P63079 26-473 partner) above
Chain of recombinant rat α2β3γ2 receptors (P18508 39-466): as the sequence (P18508 39-466 F115I) above, with I77F counted along it

[5] = biological target: recombinant rat α6β3γ2 receptors (Rattus norvegicus, UniProt P18508+P30191); experiment: as above; format: cell-based; conditions: for efficacy (% GABA EC3): ns = not significant
[6] = biological target: recombinant rat α4β3γ2 receptors (Rattus norvegicus, UniProt P18508+P28471); experiment: as above; format: cell-based; conditions: for efficacy (% GABA EC3): ns = not significant
[7] = biological target: recombinant rat α5β3γ2F77I receptors (Rattus norvegicus, UniProt P18508+P19969, F115I); experiment: as above; format: cell-based; conditions: for efficacy (% GABA EC3): ns = not significant
[8] = biological target: recombinant rat α5β3γ2 receptors (Rattus norvegicus, UniProt P18508+P19969); experiment: as above; format: cell-based; conditions: for efficacy (% GABA EC3): α5β3γ2, ns = not significant
[9] = biological target: recombinant rat α2β3γ2F77I receptors (Rattus norvegicus, UniProt P18508+P23576, F115I); experiment: as above; format: cell-based; conditions: for efficacy (% GABA EC3): ns = not significant
Chain of recombinant rat α2β3γ2F77I receptors (P23576 29-451): as the sequence (P23576 29-451) above
Chain of recombinant rat α2β3γ2F77I receptors (P63079 26-473 partner): as the sequence (P63079 26-473 partner) above
Chain of recombinant rat α2β3γ2F77I receptors (P18508 39-466 F115I): as the sequence (P18508 39-466 F115I) above

[10] = biological target: recombinant rat α1β3γ2 receptors (Rattus norvegicus, UniProt P18508+P62813); experiment: as above; format: cell-based; conditions: for efficacy (% GABA EC3): α1β3γ2, ns = not significant
[11] = system: GABAA receptors containing the γ2F77I mutation; experiment: Modulation of GABA EC3 in receptors containing the γ2F77I mutation; format: cell-based, rat; conditions: up to 100 nM
[12] = 100 nM, α2β3γ2, ns = not significant
[13] = read-out: efficacy (% GABA EC3)

`CN1C(=O)CN=C(c2ccccc2)c2cc(Cl)ccc21` [Diazepam, 7-chloro-1,3-dihydro-1-methyl-5-phenyl-2H-1,4-benzodiazepin-2-one] was tested, and the “efficacy (% GABA EC3)” value ([1]; 100 nM) was 437 ± 32 % GABA EC3, the “efficacy (% GABA EC3)” value ([1]; 1 μM) was 752 ± 48 % GABA EC3 and the “efficacy (% GABA EC3)” value ([1]; 10 μM) was 738 ± 36 % GABA EC3. For the same compound, the “efficacy (% GABA EC3)” value ([2]; 100 nM, α1β3γ2F77I) was 162 ± 17 % GABA EC3, the “efficacy (% GABA EC3)” value ([2]; 1 μM, α1β3γ2F77I) was 220 ± 21 % GABA EC3 and the “efficacy (% GABA EC3)” value ([2]; 10 μM, α1β3γ2F77I) was 229 ± 26 % GABA EC3. For the same compound, the “efficacy for enhancing GABA EC3 in receptors containing the γ2F77I mutation” value (from here on “efficacy for enhancing GABA EC3”) ([2]; α1β3γ2F77I) was 229 ± 26%, the “efficacy (% GABA EC3)” value ([3]; 100 nM, α3β3γ2F77I) was 166 ± 17 % GABA EC3 and the “efficacy (% GABA EC3)” value ([3]; 1 μM, α3β3γ2F77I) was 263 ± 39 % GABA EC3. For the same compound, the “efficacy (% GABA EC3)” value ([3]; 10 μM, α3β3γ2F77I) was 272 ± 36 % GABA EC3, the “efficacy for enhancing GABA EC3” value ([3]; α3β3γ2F77I) was 272 ± 36% and the “efficacy (% GABA EC3)” value [4, 12] was 426 ± 22 % GABA EC3. The “efficacy (% GABA EC3)” value ([4]; 1 μM, α2β3γ2, ns = not significant) was 536 ± 26 % GABA EC3, the “efficacy (% GABA EC3)” value ([4]; 10 μM, α2β3γ2, ns = not significant) was 532 ± 20 % GABA EC3 and the “efficacy (% GABA EC3)” value ([5]; 1 μM, α6β3γ2) was “ns”. For the same compound, the “efficacy (% GABA EC3)” value ([5]; 10 μM, α6β3γ2) was “ns”, the “maximal effect on GABA-induced chloride flux (GABA EC3), % of control current” value ([5]; α6β3γ2, control current = 100%) was “did not stimulate” and the “efficacy (% GABA EC3)” value ([6]; 1 μM, α4β3γ2) was “ns”. For the same compound, the “efficacy (% GABA EC3)” value ([6]; 10 μM, α4β3γ2) was “ns”, the “maximal effect on GABA-induced chloride flux (GABA EC3), % of control current” value ([6]; α4β3γ2, control current = 100%) was “did not stimulate” and the “efficacy (% GABA EC3)” value ([7]; 100 nM, α5β3γ2F77I) was 135 ± 7 % GABA EC3. For the same compound, the “efficacy (% GABA EC3)” value ([7]; 1 μM, α5β3γ2F77I) was 170 ± 4 % GABA EC3, the “efficacy (% GABA EC3)” value ([7]; 10 μM, α5β3γ2F77I) was 154 ± 2 % GABA EC3 and the “efficacy for enhancing GABA EC3” value ([7]; α5β3γ2F77I) was 154 ± 2%. For the same compound, the “efficacy (% GABA EC3)” value ([8]; 100 nM) was 274 ± 16 % GABA EC3, the “efficacy (% GABA EC3)” value ([8]; 1 μM) was 342 ± 21 % GABA EC3 and the “efficacy (% GABA EC3)” value ([8]; 10 μM) was 321 ± 14 % GABA EC3. For the same compound, the “efficacy (% GABA EC3)” value ([9]; 100 nM, α2β3γ2F77I) was 181 ± 1 % GABA EC3, the “efficacy (% GABA EC3)” value ([9]; 1 μM, α2β3γ2F77I) was 265 ± 4 % GABA EC3 and the “efficacy (% GABA EC3)” value ([9]; 10 μM, α2β3γ2F77I) was 278 ± 6 % GABA EC3. For the same compound, the “efficacy for enhancing GABA EC3” value ([9]; α2β3γ2F77I) was 278 ± 6%, the “efficacy (% GABA EC3)” value ([10]; 100 nM) was 239 ± 23 % GABA EC3 and the “efficacy (% GABA EC3)” value ([10]; 1 μM) was 314 ± 29 % GABA EC3. For the same compound, the “efficacy (% GABA EC3)” value ([10]; 10 μM) was 324 ± 22 % GABA EC3.

In the case of `COCc1c(C(=O)OC(C)C)ncc2[nH]c3ccc(OCc4ccccc4)cc3c12` [Abecarnil, Isopropyl-6-benzyloxy-4-methoxymethyl-β-carboline-3-carboxylate], the EC50 [1] is reported as over 2000 nM, the “efficacy (% GABA EC3)” value ([1]; 10 nM) is reported as “ns” and the activity at 0.1 µM [1, 13] is reported as 216 ± 44%. The activity at 1 µM [1, 13] was 320 ± 71%, the activity at 10 µM [1, 13] was 480 ± 100% and the “efficacy (% GABA EC3)” value ([2]; 10 nM, α1β3γ2F77I) was “ns”. The “efficacy (% GABA EC3)” value ([2]; 100 nM, α1β3γ2F77I) was “ns”, the activity at 1 µM [2, 13] was 179 ± 25% and the activity at 10 µM [2, 13] was 279 ± 42%. For the same compound, the “efficacy (% GABA EC3)” value ([3]; 10 nM, α3β3γ2F77I) was “ns”, the “efficacy (% GABA EC3)” value ([3]; 100 nM, α3β3γ2F77I) was “ns” and the activity at 1 µM [3, 13] was 192 ± 4%. The activity at 10 µM [3, 13] was 384 ± 24%, the EC50 [4] was over 1000 nM and the “efficacy (% GABA EC3)” value ([4]; 10 nM, α2β3γ2, ns = not significant) was “ns”. For the same compound, the “efficacy (% GABA EC3)” value [4, 12] was “ns”, the activity at 1 µM ([4]; read-out: efficacy (% GABA EC3), 1 μM, α2β3γ2, ns = not significant) was 261 ± 45% and the activity at 10 µM ([4]; read-out: efficacy (% GABA EC3), 10 μM, α2β3γ2, ns = not significant) was 353 ± 62%. For the same compound, the “activity in the mutated receptors” value [11] was “inactive”, the “efficacy (% GABA EC3)” value ([5]; 1 μM, α6β3γ2) was “ns” and the activity at 10 µM [5, 13] was 218 ± 13%. For the same compound, the “efficacy (% GABA EC3)” value ([6]; 1 μM, α4β3γ2) was “ns”, the activity at 10 µM [6, 13] was 279 ± 81% and the “efficacy (% GABA EC3)” value ([7]; 10 nM, α5β3γ2F77I) was “ns”. For the same compound, the “efficacy (% GABA EC3)” value ([7]; 100 nM, α5β3γ2F77I) was “ns”, the activity at 1 µM [7, 13] was 177 ± 11% and the activity at 10 µM [7, 13] was 283 ± 7%. For the same compound, the “efficacy (% GABA EC3)” value ([8]; 10 nM) was “ns”, the “efficacy (% GABA EC3)” value ([8]; 100 nM) was “ns” and the activity at 1 µM [8, 13] was 169 ± 23%. For the same compound, the activity at 10 µM [8, 13] was 232 ± 38%, the “efficacy (% GABA EC3)” value ([9]; 10 nM, α2β3γ2F77I) was “ns” and the “efficacy (% GABA EC3)” value ([9]; 100 nM, α2β3γ2F77I) was “ns”. It also gave an activity at 1 µM [9, 13] of 206 ± 16%, an activity at 10 µM [9, 13] of 420 ± 29% and an EC50 [10] of over 9000 nM. It also gave an activity at 0.01 µM [10, 13] of 192 ± 31%, an activity at 0.1 µM [10, 13] of 330 ± 58% and an activity at 1 µM [10, 13] of 407 ± 83%. The activity at 10 µM [10, 13] was 640 ± 157%.
